Molecular target: human VPS34 (Homo sapiens (Human), UniProt Q8NEB9)
Assay: Human VPS34 enzyme assay (Adapta TR-FRET)
Format: biochemical
Conditions: for inhibition at 1.11 µM: 1 h, inhibition of VPS34 at a 1.11 μM concentration, read-out: Percent Inhibition; for IC50: human VPS34 enzyme assay, IC50 ranges
Protocol: VPS34 (accession number GB:BC033004) was cloned into pDEST20-Thombin as N-terminal GST tagged fusion proteins using the Gateway system (Invitrogen, catalog#11804-013). The sequences were verified before recombinant protein expression using the Baculovirus Expression System with Gateway® Technology. For expression VPS34 was infected at 1 MOI in SF9 cells and harvested 72 hours post infection. For purification, VPS34 is purified by Glutathione Sepharose 4 Fast Flow (GE Healthcare #17-5132-03) followed by HiTrap Q (GE Healthcare #17-1153-01). Human VPS34 Enzyme Assay Method 100 nL compounds in DMSO are added to wells of a 384 well microtitre plate (Greiner 780076). At room temperature: 5 ul VPS34 reaction buffer (Invitrogen Assay Buffer Q (diluted 1 in 5 with nanopure water) plus 2 mM DTT and 2 mM MnCl2) containing ATP (20 uM, Promega) and 200 uM PI-PS substrate (Invitrogen PV5122) is added followed immediately by 5 ul VPS34 reaction buffer (as above) containing VPS34 (5 nM, Millennium Protein Sciences Group) and the mixture is incubated with shaking at room temperature for 1 hour. Then 5 ul […]-detect mix (as per Invitrogen Adapta Assay kit (PV5009) instructions (contains kinase quench buffer, TR-FRET buffer, Adapta Eu anti-ADP antibody and Alexa Fluor 647 ADP tracer)) is added to quench the reaction. The plates are then incubated for 30 minutes at room temperature with shaking and then read on a BMG PheraStar Plus reader. For the assay methods described above, test compound percent inhibition, at various concentrations, is calculated relative to control (DMSO and EDTA) treated samples. Compound concentration versus percent inhibition curves are fitted to generate IC50 values. One skilled in the art will appreciate that the values generated either as percentage inhibition at a single concentration or IC50 values are subject to experimental variation. […] Additionally, compounds of the invention that inhibit VPS34 are described with the following IC50 ranges: […]

Sequence of human VPS34 (Q8NEB9 whole entry): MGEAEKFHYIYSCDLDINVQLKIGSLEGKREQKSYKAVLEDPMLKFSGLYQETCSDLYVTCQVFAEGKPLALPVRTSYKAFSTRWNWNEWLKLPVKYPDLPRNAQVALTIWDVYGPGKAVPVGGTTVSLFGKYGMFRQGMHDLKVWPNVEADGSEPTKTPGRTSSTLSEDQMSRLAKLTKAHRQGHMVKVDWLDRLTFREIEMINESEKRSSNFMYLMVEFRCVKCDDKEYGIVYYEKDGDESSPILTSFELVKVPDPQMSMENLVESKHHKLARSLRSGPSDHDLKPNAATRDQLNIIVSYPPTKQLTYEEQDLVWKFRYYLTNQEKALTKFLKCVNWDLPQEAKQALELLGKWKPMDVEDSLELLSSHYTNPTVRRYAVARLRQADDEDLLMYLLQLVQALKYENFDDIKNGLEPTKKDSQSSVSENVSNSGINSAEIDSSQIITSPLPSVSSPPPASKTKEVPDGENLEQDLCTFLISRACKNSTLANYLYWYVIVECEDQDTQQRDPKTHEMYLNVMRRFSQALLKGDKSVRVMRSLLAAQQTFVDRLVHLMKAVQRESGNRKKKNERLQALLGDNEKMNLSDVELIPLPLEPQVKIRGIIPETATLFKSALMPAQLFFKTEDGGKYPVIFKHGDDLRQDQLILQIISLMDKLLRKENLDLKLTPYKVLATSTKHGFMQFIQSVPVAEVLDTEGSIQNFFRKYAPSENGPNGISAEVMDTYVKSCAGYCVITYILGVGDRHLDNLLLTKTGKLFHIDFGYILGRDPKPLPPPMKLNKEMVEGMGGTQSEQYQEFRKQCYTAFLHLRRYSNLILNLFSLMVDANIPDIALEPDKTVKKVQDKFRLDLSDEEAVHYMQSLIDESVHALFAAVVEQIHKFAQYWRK

SMILES | inhibition at 1.11 µM [%] | IC50 [nM]
CC(=O)Nc1cc(-c2cnc(C)c3c2c(C)cn3S(C)(=O)=O)ccn1 [Compound I-5, N-{4-[3,7-dimethyl-1-(methylsulfonyl)-1H-pyrrolo[2,3-c]pyridin-4-yl]pyridin-2-yl}acetamide] | > 99 | 50 to 100
COC(=O)Nc1cc(-c2cnc(C)c3c2ccn3S(=O)(=O)N(C)C)ccn1 [Compound I-6, methyl {4-[1-(dimethylsulfamoyl)-7-methyl-1H-pyrrolo[2,3-c]pyridin-4-yl]pyridin-2-yl}carbamate] | > 99 | 10 to 50
CC(=O)Nc1cc(-c2cncc3c2ccn3S(=O)(=O)C2CC2)c(F)cn1 [Compound I-8, N-{4-[1-(cyclopropylsulfonyl)-1H-pyrrolo[2,3-c]pyridin-4-yl]-5-fluoropyridin-2-yl}acetamide] | > 99 | 10 to 50
CS(=O)(=O)n1ccc2c(-c3ccnc(Nc4ncco4)c3)cncc21 [Compound I-9, 4-[1-(methylsulfonyl)-1H-pyrrolo[2,3-c]pyridin-4-yl]-N-(1,3-oxazol-2-yl)pyridin-2-amine] | > 99 | 10 to 50
CC(=O)Nc1cc(-c2cnc(C)c3c2ccn3S(=O)(=O)c2ccc(F)cc2F)ccn1 [Compound I-11, N-(4-{1-[(2,4-difluorophenyl)sulfonyl]-7-methyl-1H-pyrrolo[2,3-c]pyridin-4-yl}pyridin-2-yl)acetamide] | > 99 | 10 to 50
COC(=O)Nc1cc(-c2cnc(C)c3c2ccn3S(=O)(=O)C2CCCC2)ccn1 [Compound I-12, methyl {4-[1-(cyclopentylsulfonyl)-7-methyl-1H-pyrrolo[2,3-c]pyridin-4-yl]pyridin-2-yl}carbamate] | > 99 | 10 to 50
O=S(=O)(c1ccccc1)n1ccc2c(-c3ccnc(Nc4ncco4)c3)cncc21 [Compound I-13, N-(1,3-oxazol-2-yl)-4-[1-(phenylsulfonyl)-1H-pyrrolo[2,3-c]pyridin-4-yl]pyridin-2-amine] | > 99 | 10 to 50
CC(=O)Nc1cc(-c2cnc(C)c3c2c(F)cn3S(=O)(=O)C2CC2)ccn1 [Compound I-14, N-{4-[1-(cyclopropylsulfonyl)-3-fluoro-7-methyl-1H-pyrrolo[2,3-c]pyridin-4-yl]pyridin-2-yl}acetamide] | > 99 | 10 to 50
CC(=O)Nc1cc(-c2cnc(N(C)C)c3c2ccn3S(=O)(=O)C2CC2)ccn1 [Compound I-18, N-{4-[1-(cyclopropylsulfonyl)-7-(dimethylamino)-1H-pyrrolo[2,3-c]pyridin-4-yl]pyridin-2-yl}acetamide] | > 99 | 10 to 50
CC(=O)Nc1cc(-c2cncc3[nH]ccc23)ccn1 [Compound I-20, N-[4-(1H-pyrrolo[2,3-c]pyridin-4-yl)pyridin-2-yl]acetamide] | > 99 | 50 to 100
CC(=O)Nc1cc(-c2cncc3c2ccn3S(C)(=O)=O)ccn1 [Compound I-21, N-{4-[1-(methylsulfonyl)-1H-pyrrolo[2,3-]pyridin-4-yl]pyridin-2-yl}acetamide] | > 99 | 10 to 50
CC(=O)Nc1cc(-c2cncc3c2cnn3S(=O)(=O)C2CC2)ccn1 [Compound I-22, N-{4-[1-(cyclopropylsulfonyl)-1H-pyrazolo[3,4-c]pyridin-4-yl]pyridin-2-yl}acetamide] | > 99 | 50 to 100
CCc1cc2c(-c3ccnc(NC(C)=O)c3)cncc2n1S(=O)(=O)c1ccccc1 [Compound I-24, N-{4-[2-ethyl-1-(phenylsulfonyl)-1H-pyrrolo[2,3-c]pyridin-4-yl]pyridin-2-yl}acetamide] | > 99 | 10 to 50

Results, then the molecule that gave them:

inhibition at 1.11 µM [%] | IC50 [nM] | SMILES
> 99 | < 10 | Cc1ncc(-c2ccnc(NC(=O)C3CC3(F)F)c2)c2ccn(S(C)(=O)=O)c12 (racemic) [Compound I-35, (rac)-2,2-difluoro-N-{4-[7-methyl-1-(methylsulfonyl)-1H-pyrrolo[2,3-c]pyridin-4-yl]pyridin-2-yl}cyclopropanecarboxamide]
> 99 | < 10 | COC(=O)Nc1cc(-c2cnc(OC)c3c2ccn3S(C)(=O)=O)ccn1 [Compound I-1, methyl {4-[7-methoxy-1-(methylsulfonyl)-1H-pyrrolo[2,3-c]pyridin-4-yl]pyridin-2-yl}carbamate]
> 99 | < 10 | COC(=O)Nc1cc(-c2cnc(C)c3c2ccn3S(=O)(=O)c2ccccc2)ccn1 [Compound I-2, methyl {4-[7-methyl-1-(phenylsulfonyl)-1H-pyrrolo[2,3-c]pyridin-4-yl]pyridin-2-yl}carbamate]
> 99 | < 10 | CCc1ncc(-c2ccnc(NC(C)=O)c2)c2ccn(S(C)(=O)=O)c12 [Compound I-3, N-{4-[7-ethyl-1-(methylsulfonyl)-1H-pyrrolo[2,3-c]pyridin-4-yl]pyridin-2-yl}acetamide]
> 99 | < 10 | CC(=O)Nc1cc(-c2cnc(C)c3c2ccn3S(=O)(=O)c2ccccc2)ccn1 [Compound I-4, N-{4-[7-methyl-1-(phenylsulfonyl)-1H-pyrrolo[2,3-c]pyridin-4-yl]pyridin-2-yl}acetamide]
> 99 | < 10 | CC(=O)Nc1cc(-c2cnc(C)c3c2ccn3S(=O)(=O)N(C)C)ccn1 [Compound I-7, N-{4-[1-(dimethylsulfamoyl)-7-methyl-1H-pyrrolo[2,3-c]pyridin-4-yl]pyridin-2-yl}acetamide]
> 99 | < 10 | COC(=O)Nc1cc(-c2cnc(OC)c3c2ccn3S(=O)(=O)c2ccccc2)ccn1 [Compound I-10, methyl {4-[7-methoxy-1-(phenylsulfonyl)-1H-pyrrolo[2,3-c]pyridin-4-yl]pyridin-2-yl}carbamate]
> 99 | < 10 | COC(=O)Nc1cc(-c2cnc(C)c3c2ccn3S(=O)(=O)CC(C)C)ccn1 [Compound I-15, methyl {4-[1-(isobutylsulfonyl)-7-methyl-1H-pyrrolo[2,3-c]pyridin-4-yl]pyridin-2-yl}carbamate]
> 99 | < 10 | CCS(=O)(=O)n1ccc2c(-c3ccnc(NC(C)=O)c3)cnc(C)c21 [Compound I-16, N-{4-[1-(ethylsulfonyl)-7-methyl-1H-pyrrolo[2,3-c]pyridin-4-yl]pyridin-2-yl}acetamide]
> 99 | < 10 | COC(=O)Nc1cc(-c2cncc3c2ccn3S(=O)(=O)N(C)C)ccn1 [Compound I-17, methyl {4-[1-(dimethylsulfamoyl)-1H-pyrrolo[2,3-c]pyridin-4-yl]pyridin-2-yl}carbamate]
> 99 | < 10 | CC(=O)Nc1cc(-c2cnc(C)c3c2ccn3S(=O)(=O)N2CCCC2)ccn1 [Compound I-23, N-{4-[7-methyl-1-(pyrrolidin-1-ylsulfonyl)-1H-pyrrolo[2,3-c]pyridin-4-yl]pyridin-2-yl}acetamide]
> 99 | < 10 | CCOC(=O)Nc1cc(-c2cncc3c2ccn3S(C)(=O)=O)ccn1 [Compound I-25, ethyl {4-[1-(methylsulfonyl)-1H-pyrrolo[2,3-c]pyridin-4-yl]pyridin-2-yl}carbamate]

— patent US10202373B2, “Heteroaryls and uses thereof” (MILLENNIUM PHARMACEUTICALS, INC., priority 2014, dated 2019)
